Experimental data: US12679878B2, “CRF2 receptor agonists and their use in therapy” (SANOFI, priority 2020, dated 2026)
Like-named read-outs stand apart in the source and are kept apart here. Starred links: 1 amine or outer side, 2 acyl side, 3 side chain; linkers in the order of their positions; H or OH if unused. Non-standard residues stand in square brackets, D forms with d. Residues, ends and D or L forms follow the SMILES beside them. Groups on a side chain read outwards from the residue. *: point of attachment. C16 diacid = O=C(O)CCCCCCCCCCCCCCC(=O)*; γGlu = O=C(O)[C@H](CCC(=O)[*:2])N[*:1]; AEEA = NCCOCCOCC(=O)O; Aib = CC(C)(N)C(=O)O

Assays:
human CRF2α receptor = biological target: T1, human CRF2α receptor (Homo sapiens, UniProt Q13324); assay: cAMP agonism at human CRF2α receptor in TeloHEAC cells, FA modified peptides (Example 19.9); assay type: cell-based; settings: 0% HSA, relative to urocortin 2
T1 construct: expressed in transfected cells; host or cells: TeloHEAC
T1 sequence (Q13324 1-411): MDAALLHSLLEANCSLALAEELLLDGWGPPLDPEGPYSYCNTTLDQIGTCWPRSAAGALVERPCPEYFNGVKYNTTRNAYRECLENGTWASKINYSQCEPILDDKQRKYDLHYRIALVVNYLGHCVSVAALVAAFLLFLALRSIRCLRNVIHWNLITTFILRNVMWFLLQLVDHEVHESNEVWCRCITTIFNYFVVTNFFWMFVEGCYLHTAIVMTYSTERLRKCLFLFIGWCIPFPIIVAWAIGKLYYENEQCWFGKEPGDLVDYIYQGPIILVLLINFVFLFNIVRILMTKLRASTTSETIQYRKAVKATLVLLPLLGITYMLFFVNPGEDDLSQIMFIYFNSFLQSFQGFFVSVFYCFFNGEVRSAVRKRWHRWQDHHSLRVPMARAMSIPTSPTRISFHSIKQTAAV
Experimental: Agonism of compounds for human corticotropin-releasing factor 2α (CRF2α receptor) was determined by a functional assay measuring cAMP modulation upon treatment of TeloHEAC cells stably expressing human CRF2α receptor.
Compounds were dissolved at 0.5 mM in 100% DMSO and serially diluted (1:2) in 100% DMSO for 16 dilutions. 20 nL of each dilution was then transferred to 384-well assay plate using an acoustic droplet ejection instrument. 5 μL of compound buffer (1×HBSS; 20 mM HEPES, 2 mM IBMX, 0% or 0.2% HSA) were then added to each well.
Prior to use, frozen cells were thawed quickly at 37° C. and washed (5 min at 900 rpm) with 20 mL cell buffer (1×HBSS; 20 mM HEPES). Cells were resuspended in cell buffer and adjusted to a cell density of 800.000 cells/ml.
5 μL cells (final dell density: 4000 cells/well) were dispensed in the compound-containing 384-well assay plate and incubated for 30 minutes 37° C.
The CAMP level in treated cells was determined using the Cisbio 62AM4PEC kit according to manufacturer's instruction. Finally, plates were incubated for 1 h at room temperature before measuring the fluorescence ratio between 665/620 nm.
The percent activity value (E %) was calculated by setting 100 nM of urocortin 2 (UCN2) as 100%. The in vitro potency of the compounds was quantified by determining the concentrations that caused 50% activation of maximal response (EC50) relative to urocortin 2.

CRF1R receptor = biological target: T2, CRF1R receptor (Homo sapiens, UniProt P34998); assay: cAMP activity at anti-target CRF1R, CHO-K1 cell line clone 2 (Example 19.10); assay type: cell-based; settings: for Emax: 100% = Sauvagine at 100 nM
T2 construct: host or cells: CHO-K1 clone 2
T2 sequence (P34998 24-415): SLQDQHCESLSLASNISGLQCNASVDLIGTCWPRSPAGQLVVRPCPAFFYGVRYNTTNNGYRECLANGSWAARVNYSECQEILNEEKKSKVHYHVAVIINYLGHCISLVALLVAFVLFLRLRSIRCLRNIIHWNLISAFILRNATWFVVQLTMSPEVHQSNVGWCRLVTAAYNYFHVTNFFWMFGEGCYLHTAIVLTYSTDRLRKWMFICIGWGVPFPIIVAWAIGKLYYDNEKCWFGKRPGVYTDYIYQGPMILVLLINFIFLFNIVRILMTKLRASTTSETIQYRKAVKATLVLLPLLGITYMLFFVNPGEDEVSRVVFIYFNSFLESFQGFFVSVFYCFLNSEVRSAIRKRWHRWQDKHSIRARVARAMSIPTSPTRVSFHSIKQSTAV
How it was run: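 A CRF1R-overexpressing CHO-K1 line (clone 2) was grown in F12/10% FBS/G418 and frozen in aliquots before use. The cAMP assay followed the preceding procedure, with 100% activation defined by Sauvagine at 100 nM.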

[1] = 0% HSA, CRF1R CHO-K1 clone 2, read-out: EC50 [nM] 0% HSA

Row | Structure (SMILES) | EC50 (human CRF2α receptor) | EC50 (CRF1R receptor; [1]) | Emax (CRF1R receptor; CRF1R CHO-K1 clone 2) | EC50 (CRF1R receptor; Table 20 side-to-side comparison, read-out: CRF1 EC50) | CRF1/CRF2 ratio (CRF1R receptor; ratio of CRF1 EC50 to CRF2 EC50)
1 | CC[C@H](C)[C@H](N)C(=O)N[C@H](C(=O)N[C@@H](CC(C)C)C(=O)N[C@@H](CO)C(=O)N[C@@H](CC(C)C)C(=O)N[C@@H](CC(=O)O)C(=O)N[C@@H](C(=O)N1CCC[C@H]1C(=O)N[C@H](C(=O)N[C@@H](CCCCN)C(=O)N[C@@H](CC(C)C)C(=O)N[C@@H](CCCCNC(=O)CC[C@H](NC(=O)CCCCCCCCCCCCCCC(=O)O)C(=O)O)C(=O)N[C@@H](CCC(N)=O)C(=O)N[C@H](C(=O)N[C@@H](CC(C)C)C(=O)N[C@@H](CC(C)C)C(=O)N[C@@H](CCCCN)C(=O)N[C@@H](CCC(N)=O)C(=O)N[C@@H](C)C(=O)N[C@@H](CCCNC(=N)N)C(=O)N[C@@H](CCC(N)=O)C(=O)N[C@@H](CCCCN)C(=O)NC(C)(C)C(=O)N[C@@H](CCC(N)=O)C(=O)N[C@@H](CCCNC(=N)N)C(=O)N[C@@H](C)C(=O)N[C@@H](CCC(N)=O)C(=O)N[C@@H](C)C(=O)N[C@@H](CCC(=O)O)C(=O)N[C@@H](CCCCN)C(=O)N[C@@H](CC(N)=O)C(=O)N[C@@H](CCCCN)C(=O)N[C@@H](CCCNC(=N)N)C(=O)N[C@H](C(=O)N[C@@H](CC(C)C)C(=O)N[C@@H](CCC(=O)O)C(=O)N[C@@H](CCCNC(=N)N)C(=O)N[C@H](C(N)=O)C(C)C)[C@@H](C)CC)[C@@H](C)CC)[C@@H](C)CC)C(C)C)C(C)C [compound 197] (H-IVLSLD[dV]PIKLK([γGlu-C16 diacid])QILLKQARQK[Aib]QRAQAEKNKRILERV-NH2; N-terminus assumed) | 2.27 nM | > 100 nM | 24.4% | > 100 nM | >500
2 | CC[C@H](C)[C@H](N)C(=O)N[C@H](C(=O)N[C@@H](CC(C)C)C(=O)N[C@@H](CO)C(=O)N[C@@H](CC(C)C)C(=O)N[C@@H](CC(=O)O)C(=O)N[C@@H](C(=O)N1CCC[C@H]1C(=O)N[C@H](C(=O)N[C@@H](CCCCN)C(=O)N[C@@H](CC(C)C)C(=O)N[C@@H](CCCCNC(=O)COCCOCCNC(=O)COCCOCCNC(=O)CC[C@H](NC(=O)CCCCCCCCCCCCCCC(=O)O)C(=O)O)C(=O)N[C@@H](CCC(N)=O)C(=O)N[C@H](C(=O)N[C@@H](CC(C)C)C(=O)N[C@@H](CC(C)C)C(=O)N[C@@H](CCCCN)C(=O)N[C@@H](CCC(N)=O)C(=O)N[C@@H](CCC(=O)O)C(=O)N[C@@H](CCCNC(=N)N)C(=O)N[C@@H](CCC(N)=O)C(=O)N[C@@H](CCCCN)C(=O)NC(C)(C)C(=O)N[C@@H](CCC(N)=O)C(=O)N[C@@H](CCCNC(=N)N)C(=O)N[C@@H](CCC(=O)O)C(=O)N[C@@H](CCC(N)=O)C(=O)N[C@@H](C)C(=O)N[C@@H](CCC(=O)O)C(=O)N[C@@H](CCCCN)C(=O)N[C@@H](CC(N)=O)C(=O)N[C@@H](CCCCN)C(=O)N[C@@H](CCC(N)=O)C(=O)N[C@H](C(=O)N[C@@H](CC(C)C)C(=O)N[C@@H](C)C(=O)N[C@@H](CCC(N)=O)C(=O)N[C@H](C(N)=O)C(C)C)[C@@H](C)CC)[C@@H](C)CC)[C@@H](C)CC)C(C)C)C(C)C [compound 198] (H-IVLSLD[dV]PIKLK([AEEA-AEEA-γGlu-C16 diacid])QILLKQERQK[Aib]QREQAEKNKQILAQV-NH2; N-terminus assumed) | 0.49 nM | > 100 nM | 1.4% |  | 
3 | CC[C@H](C)[C@H](N)C(=O)N[C@H](C(=O)N[C@@H](CC(C)C)C(=O)N[C@@H](CO)C(=O)N[C@@H](CC(C)C)C(=O)N[C@@H](CC(=O)O)C(=O)N[C@@H](C(=O)N1CCC[C@H]1C(=O)N[C@H](C(=O)N[C@@H](CCCCN)C(=O)N[C@@H](CC(C)C)C(=O)N[C@@H](CCCCNC(=O)COCCOCCNC(=O)COCCOCCNC(=O)CC[C@H](NC(=O)CC[C@H](NC(=O)CCCCCCCCCCCCCCC(=O)O)C(=O)O)C(=O)O)C(=O)N[C@@H](CCC(N)=O)C(=O)N[C@H](C(=O)N[C@@H](CC(C)C)C(=O)N[C@@H](CC(C)C)C(=O)N[C@@H](CCCCN)C(=O)N[C@@H](CCC(N)=O)C(=O)N[C@@H](CCC(=O)O)C(=O)N[C@@H](CCCNC(=N)N)C(=O)N[C@@H](CCC(N)=O)C(=O)N[C@@H](CCCCN)C(=O)NC(C)(C)C(=O)N[C@@H](CCC(N)=O)C(=O)N[C@@H](CCCNC(=N)N)C(=O)N[C@@H](CCC(=O)O)C(=O)N[C@@H](CCC(N)=O)C(=O)N[C@@H](C)C(=O)N[C@@H](CCC(=O)O)C(=O)N[C@@H](CCCCN)C(=O)N[C@@H](CC(N)=O)C(=O)N[C@@H](CCCCN)C(=O)N[C@@H](CCC(N)=O)C(=O)N[C@H](C(=O)N[C@@H](CC(C)C)C(=O)N[C@@H](C)C(=O)N[C@@H](CCC(N)=O)C(=O)N[C@H](C(N)=O)C(C)C)[C@@H](C)CC)[C@@H](C)CC)[C@@H](C)CC)C(C)C)C(C)C [compound 199] (H-IVLSLD[dV]PIKLK([AEEA-AEEA-γGlu-γGlu-C16 diacid])QILLKQERQK[Aib]QREQAEKNKQILAQV-NH2; N-terminus assumed) | 1.39 nM | > 100 nM | -2.9% |  | 
4 | CC[C@H](C)[C@H](N)C(=O)N[C@H](C(=O)N[C@@H](CC(C)C)C(=O)N[C@@H](CO)C(=O)N[C@@H](CC(C)C)C(=O)N[C@@H](CC(=O)O)C(=O)N[C@@H](C(=O)N1CCC[C@H]1C(=O)N[C@H](C(=O)N[C@@H](CCCCN)C(=O)N[C@@H](CC(C)C)C(=O)N[C@@H](CCCCNC(=O)COCCOCCNC(=O)COCCOCCNC(=O)CC[C@H](NC(=O)CCCCCCCCCCCCCCC(=O)O)C(=O)O)C(=O)N[C@@H](CCC(N)=O)C(=O)N[C@H](C(=O)N[C@@H](CC(C)C)C(=O)N[C@@H](CC(C)C)C(=O)N[C@@H](CCCCN)C(=O)N[C@@H](CCC(N)=O)C(=O)N[C@@H](CCC(=O)O)C(=O)N[C@@H](CCCNC(=N)N)C(=O)N[C@@H](CCC(N)=O)C(=O)N[C@@H](CCCCN)C(=O)N[C@@H](CCCCN)C(=O)NC(C)(C)C(=O)N[C@@H](CCCNC(=N)N)C(=O)N[C@@H](CCC(N)=O)C(=O)N[C@@H](CCCCN)C(=O)N[C@@H](C)C(=O)N[C@@H](CCC(=O)O)C(=O)N[C@@H](CCCCN)C(=O)N[C@@H](CC(N)=O)C(=O)N[C@@H](CCCCN)C(=O)N[C@@H](CCC(N)=O)C(=O)N[C@H](C(=O)N[C@@H](CC(C)C)C(=O)N[C@@H](C)C(=O)N[C@@H](CCC(N)=O)C(=O)N[C@H](C(N)=O)C(C)C)[C@@H](C)CC)[C@@H](C)CC)[C@@H](C)CC)C(C)C)C(C)C [compound 200] (H-IVLSLD[dV]PIKLK([AEEA-AEEA-γGlu-C16 diacid])QILLKQERQKK[Aib]RQKAEKNKQILAQV-NH2; N-terminus assumed) | 8.7 nM | > 100 nM | 1.9% |  | 
